The values that follow come from PubChem BioAssay AID743424 (The Scripps Research Institute Molecular Screening Center, 2014).

Activity calls are given as the source filed them. No rule for the calls is given here.

The target in this assay is Sphingosine 1-phosphate receptor 3 (Homo sapiens) (UniProt Q99500). Put plainly: agonism at human S1PR3 – cell-based, fluorescence, dose response, counter-screen for S1PR3 antagonist project, late-stage follow-up (AID 743424). Particulars: S1P3-expressing cells, agonist-mode fluorescence counterscreen. (In general: Counterscreens check selectivity or assay interference.)
Chain of Sphingosine 1-phosphate receptor 3 (Homo sapiens) (Q99500 whole entry, looked up): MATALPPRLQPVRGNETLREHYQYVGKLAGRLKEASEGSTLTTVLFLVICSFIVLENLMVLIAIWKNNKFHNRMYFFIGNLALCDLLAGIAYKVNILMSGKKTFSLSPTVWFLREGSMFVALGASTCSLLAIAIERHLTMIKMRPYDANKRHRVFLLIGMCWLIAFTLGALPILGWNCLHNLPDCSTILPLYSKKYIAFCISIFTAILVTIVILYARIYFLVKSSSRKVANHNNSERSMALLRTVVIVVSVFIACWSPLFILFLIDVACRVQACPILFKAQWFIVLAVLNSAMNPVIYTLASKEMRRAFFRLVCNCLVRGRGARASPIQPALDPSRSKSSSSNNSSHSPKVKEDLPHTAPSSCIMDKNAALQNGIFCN
`O=C(c1cccc(Cl)c1)N(CCO)C(c1ccc(Cl)c(Cl)c1)c1nc(-c2ccccc2)no1` (configuration not stated): the EC50 (as a rule, the concentration at which the effect is half-maximal) is > 50 µM (inactive).

Consider `O=C(NC(c1ccccc1)c1nc(-c2ccccc2)no1)c1cccc(Br)c1` (configuration not stated), for which the EC50 is > 50 µM (inactive).

As for `N#Cc1ccc(C(=O)NC(c2ccc(Cl)c(Cl)c2)c2nc(-c3ccccc3)no2)cc1` (configuration not stated), the EC50 was > 50 µM (inactive).

On to `Cc1ccc(C(=O)NC(c2ccccc2)c2nc(-c3ccccc3)no2)cc1` (configuration not stated), for which the EC50 is > 50 µM (inactive).

As for `O=C(NC(Cc1ccccc1)c1nc(-c2ccccc2)no1)c1cccc(Cl)c1` (configuration not stated), the EC50 is > 50 µM (inactive).

For `CCc1ccc(C(NC(=O)c2cccc(Cl)c2)c2nc(-c3ccccc3)no2)cc1` (configuration not stated), the EC50 is > 50 µM (inactive).

With `Cc1ccc(C(NC(=O)c2cccc(Cl)c2)c2nc(-c3ccccc3)no2)cc1` (configuration not stated), the EC50 was > 50 µM (inactive).

As to `O=C(NC(c1ccc(Cl)cc1)c1nc(-c2ccccc2)no1)c1ccc(Cl)c(Cl)c1` (configuration not stated), the EC50 was > 50 µM (inactive).

For the compound `O=C(NC(c1ccc(Cl)cc1)c1nc(-c2cccc(Cl)c2)no1)c1cccc(Cl)c1` (configuration not stated), the EC50 was > 50 µM (inactive).

As for `O=C(NC(c1ccc(Cl)cc1)c1nc(-c2ccccn2)no1)c1cccc(Cl)c1` (configuration not stated), the EC50 was > 50 µM (inactive).

Regarding `O=C(NC(c1nc(-c2ccccc2)no1)C1CCCCC1)c1ccc(Cl)c(Cl)c1` (configuration not stated), the EC50 is > 50 µM (inactive).

On to `O=C(NC(c1ccc(Cl)cc1)c1nc(-c2ccccc2)no1)c1cccc(Cl)c1` (configuration not stated), for which the EC50 is > 50 µM (inactive).

As for `O=C(NC(c1cccc(Cl)c1)c1nc(-c2ccccc2)no1)c1cccc(Cl)c1` (configuration not stated), the EC50 is > 50 µM (inactive).

For the compound `O=C(NC(c1cccc(Cl)c1)c1nc(-c2ccccc2)no1)c1cc(Cl)cc(Cl)c1` (configuration not stated), the EC50 was > 50 µM (inactive).

`O=C(NC(c1ccccc1)c1nc(-c2ccccc2)no1)c1ccc(Cl)cc1` (configuration not stated): the EC50 is > 50 µM (inactive).

Regarding `O=C(NC(c1ccc(Cl)c(Cl)c1)c1nc(-c2ccccc2)no1)c1ccccc1` (configuration not stated), the EC50 was > 50 µM (inactive).

Turning to `O=C(NC(c1ccc(Cl)cc1)c1nc(-c2ccccc2)no1)c1cccc(Br)c1` (configuration not stated), the EC50 is > 50 µM (inactive).

Take `O=C(NC(c1ccccc1)c1nc(-c2ccccc2)no1)c1cccc(Cl)c1` (configuration not stated): the EC50 was > 50 µM (inactive).

With `O=C(NC(c1ccc(Cl)c(Cl)c1)c1nc(-c2ccccc2)no1)c1cccc(Cl)c1` (configuration not stated), the EC50 was > 50 µM (inactive).

On to `O=C(NC(c1ccc(Br)cc1)c1nc(-c2ccccc2)no1)c1ccc(Cl)c(Cl)c1` (configuration not stated), for which the EC50 is > 50 µM (inactive).

With `O=C(NC(c1nc(-c2ccccc2)no1)C1CCOCC1)c1ccc(Cl)c(Cl)c1` (configuration not stated), the EC50 is > 50 µM (inactive).

Take `O=C(NC(c1ccccc1)c1nc(-c2ccccc2)no1)c1cccc(Cl)n1` (configuration not stated): the EC50 result is “inactive”.

As for `O=C(NC(c1ccc(Cl)cc1)c1nc(-c2ccccc2)no1)c1ccc(Cl)c(Br)c1` (configuration not stated), the EC50 is > 50 µM (inactive).

For `O=C(NC(c1ccc(Cl)c(Cl)c1)c1nc(-c2ccccc2)no1)c1ccc(Cl)cc1` (configuration not stated), the EC50 was > 50 µM (inactive).

Take `O=C(NC(c1cccc(Cl)c1)c1nc(-c2ccccc2)no1)c1ccc(Cl)c(Cl)c1` (configuration not stated): the EC50 was > 50 µM (inactive).

For the compound `O=C(NC(c1ccc(Cl)c(Cl)c1)c1nc(-c2ccccc2)no1)c1ccc(Cl)c(Cl)c1` (configuration not stated), the EC50 was > 50 µM (inactive).

For `COc1ccc(C(=O)NC(c2ccccc2)c2nc(-c3ccccc3)no2)cc1` (configuration not stated), the EC50 was > 50 µM (inactive).
